Measured values taken from US20240091209A1, “COMPOSITIONS AND METHODS FOR TREATMENT OF HIDRADENITIS SUPPURATIVA” (SUZHOU KINTOR PHARMACEUTICALS, INC., priority 2021, published 2024).
“Also recorded” adds a separate entry of the source.

Experiments:
[1] = tested on: hidradenitis suppurativa (HS); test: Study of Proxalutamide for the treatment of HS (Hurley Stage after 7 days); type: in vivo, human
Procedure: (§1) Overview: Four subjects, 2 males and 2 females, were recruited to the Proxalutamide HS study. At baseline (day 0) all subjects were diagnosed by a dermatologist with HS Hurley Stage 3. All subjects presented HS in the axilla region. Two subjects (1 male and 1 female) were treated for 7 days with Proxalutamide monotherapy 200 mg daily and two subjects were treated for 7 days with Proxalutamide placebo monotherapy 200 mg daily
Efficacy Endpoint: Hurley Stage following 7 days of treatment.
Formula: Proxalutamie 200 mg q.d.
(§2) Results: Following 7 days of treatment with Proxalutamide 200 mg q.d., all four subjects returned to the clinic to be assessed by a dermatologist. On day 7 both subjects treated with Proxalutamie were diagnosed by a dermatologist with HS Hurley Stage 1. […] On day 7 both subjects treated with Proxalutamie placebo were diagnosed by a dermatologist with HS Hurley Stage 3.

[2] = Adverse events in the Proxalutamide HS study; type: in vivo, human; conditions: 200 mg q.d. for 7 days; 2 subjects
Procedure: as §1, §2

androgen receptor (AR) = target: T1, androgen receptor (AR) (Homo sapiens, UniProt P10275); conditions: clinical evidence, no details given; cited from earlier work
T1 sequence (P10275 1-920): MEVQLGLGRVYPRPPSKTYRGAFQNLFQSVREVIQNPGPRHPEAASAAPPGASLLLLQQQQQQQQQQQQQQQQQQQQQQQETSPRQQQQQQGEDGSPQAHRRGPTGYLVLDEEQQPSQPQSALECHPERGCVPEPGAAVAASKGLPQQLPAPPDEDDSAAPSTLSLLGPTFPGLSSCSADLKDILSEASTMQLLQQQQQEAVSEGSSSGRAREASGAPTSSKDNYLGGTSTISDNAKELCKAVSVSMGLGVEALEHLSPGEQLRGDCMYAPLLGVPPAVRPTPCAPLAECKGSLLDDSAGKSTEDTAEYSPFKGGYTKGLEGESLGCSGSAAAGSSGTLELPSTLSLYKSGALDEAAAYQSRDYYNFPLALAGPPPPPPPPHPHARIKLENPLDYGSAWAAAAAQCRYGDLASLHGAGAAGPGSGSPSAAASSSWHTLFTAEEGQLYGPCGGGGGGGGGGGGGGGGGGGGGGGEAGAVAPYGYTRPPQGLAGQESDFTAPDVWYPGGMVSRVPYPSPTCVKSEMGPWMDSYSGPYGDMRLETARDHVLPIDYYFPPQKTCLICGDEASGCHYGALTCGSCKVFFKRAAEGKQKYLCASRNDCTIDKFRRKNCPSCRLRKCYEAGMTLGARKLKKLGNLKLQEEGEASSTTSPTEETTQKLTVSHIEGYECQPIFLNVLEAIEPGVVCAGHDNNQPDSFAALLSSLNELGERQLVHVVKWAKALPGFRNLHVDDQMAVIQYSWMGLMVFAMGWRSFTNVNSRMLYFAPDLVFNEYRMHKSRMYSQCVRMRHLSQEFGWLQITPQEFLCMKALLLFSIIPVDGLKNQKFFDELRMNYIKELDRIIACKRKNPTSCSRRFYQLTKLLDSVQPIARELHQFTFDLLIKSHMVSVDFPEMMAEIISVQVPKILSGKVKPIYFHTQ

[3] = men and women; cited from earlier work
[4] = tested on: hidradenitis suppurativa (HS); conditions: 24 female patients; ethinyloestradiol 50 μg + cyproterone acetate 50 mg vs ethinyloestradiol 50 μg + norgestrel 500 μg; positive benefits in both groups; cited from earlier work

| SMILES | HS Hurley Stage diagnosed by a dermatologist on day 7 ([1]; 200 mg q.d. monotherapy for 7 days, 2 subjects (1 male, 1 female), axilla, baseline Hurley Stage 3, placebo subjects stayed at Stage 3) | Severity of HS compared to the placebo ([1]; within 7 days, 200 mg q.d.) | Adverse events reported by the subjects [2] | Effect on AR expression and activity (androgen receptor (AR)) | Safety in Phase II studies [3] | Benefit in HS versus ethinyloestradiol plus norgestrel [4] |
| --- | --- | --- | --- | --- | --- | --- |
| CC1(C)C(=O)N(c2ccc(C#N)c(C(F)(F)F)c2F)C(=S)N1c1ccc(CCCc2ncco2)nc1 [Proxalutamide, proxalutamide] | 1 | reduced the severity of HS | No adverse events; also recorded: without any adverse events | lowers AR expression and activity | safe in both men and women |  |
| CC(=O)O[C@]1(C(C)=O)CC[C@H]2[C@@H]3C=C(Cl)C4=CC(=O)[C@@H]5C[C@@H]5[C@]4(C)[C@H]3CC[C@@]21C [cyproterone acetate] |  |  |  |  |  | no statistically significant advantage |
